Test results reported in ChEMBL document CHEMBL4402510, “Caprazamycins: Promising lead structures acting on a novel antibacterial target MraY” (Eur J Med Chem, 2019).
In brackets after ≈: the same amount, converted by molar mass.

What was measured:
[1] = test system: Mycobacterium intracellulare; experiment: Antibacterial activity against Mycobacterium intracellulare after 20 hrs by NCCLS-based two-fold broth dilution method; type: functional
Staphylococcus aureus [2] = experiment: Antibacterial activity against methicillin resistant Staphylococcus aureus after 20 hrs by NCCLS-based two-fold broth dilution method; type: functional; settings: read-out: MIC
[3] = test system: Mycobacterium tuberculosis; experiment: Antibacterial activity against Mycobacterium tuberculosis after 20 hrs by NCCLS-based two-fold broth dilution method; type: functional
Enterococcus faecalis [4] = experiment: Antibacterial activity against Enterococcus faecalis NCTC122103; type: functional
Enterococcus faecalis [5] = experiment: Antibacterial activity against Enterococcus faecalis JCM 5803; type: functional
[6] = test system: Mycobacterium tuberculosis; experiment: Antibacterial activity against Mycobacterium tuberculosis H37Rv; type: functional
Staphylococcus aureus [7] = experiment: Antibacterial activity against methicillin resistant Staphylococcus aureus No. 5; type: functional
[8] = test system: Mycobacterium avium subsp. paratuberculosis; experiment: Antibacterial activity against Mycobacterium avium subsp. paratuberculosis ATCC 43015; type: functional
[9] = molecular target: T1, Phospho-N-acetylmuramoyl-pentapeptide-transferase (Bacillus subtilis (strain 168), UniProt Q03521); experiment: Inhibition of MraY in Bacillus subtilis
T1 sequence (Q03521 whole entry): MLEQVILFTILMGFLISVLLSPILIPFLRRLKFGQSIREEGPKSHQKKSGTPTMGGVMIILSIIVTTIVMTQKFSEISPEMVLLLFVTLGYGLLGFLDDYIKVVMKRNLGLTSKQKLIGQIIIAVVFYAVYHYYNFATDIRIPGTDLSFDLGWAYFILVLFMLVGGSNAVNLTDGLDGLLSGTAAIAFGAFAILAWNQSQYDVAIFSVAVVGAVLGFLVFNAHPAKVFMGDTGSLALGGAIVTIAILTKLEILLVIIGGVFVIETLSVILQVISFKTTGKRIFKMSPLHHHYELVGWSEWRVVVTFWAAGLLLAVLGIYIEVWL

Streptococcus pneumoniae [10] = experiment: Antibacterial activity against Streptococcus pneumoniae CR-8; type: functional
Staphylococcus aureus [11] = experiment: Antibacterial activity against Staphylococcus aureus after 20 hrs by NCCLS-based two-fold broth dilution method; type: functional
Staphylococcus aureus [12] = experiment: Antibacterial activity against Staphylococcus aureus FDA209P; type: functional; settings: FDA 209P
Streptococcus pneumoniae [13] = experiment: Antibacterial activity against Streptococcus pneumoniae S-223; type: functional
Mycolicibacterium vaccae = experiment: Antibacterial activity against Mycobacterium vaccae after 20 hrs by NCCLS-based two-fold broth dilution method; type: functional
Bacillus subtilis [14] = experiment: Antibacterial activity against Bacillus subtilis after 20 hrs by NCCLS-based two-fold broth dilution method; type: functional
[15] = Antibacterial activity against Mycobacterium avium subsp. avium ATCC 25291; type: functional
Mycolicibacterium phlei = experiment: Antibacterial activity against Mycobacterium phlei after 20 hrs by NCCLS-based two-fold broth dilution method; type: functional
[16] = test system: Mycolicibacterium smegmatis; experiment: Inhibition of WecA in Mycobacterium smegmatis
Mycobacterium avium = experiment: Antibacterial activity against Mycobacterium avium after 20 hrs by NCCLS-based two-fold broth dilution method; type: functional
[17] = test system: Mycobacterium tuberculosis; experiment: Inhibition of WecA in Mycobacterium tuberculosis mc2 6230
[18] = test system: Mycobacterium intracellulare; experiment: Antibacterial activity against Mycobacterium intracellulare JCM3684; type: functional
[19] = test system: Mycobacterium tuberculosis; experiment: Inhibition of WecA in Mycobacterium tuberculosis
Escherichia coli = experiment: Antibacterial activity against Escherichia coli after 20 hrs by NCCLS-based two-fold broth dilution method; type: functional
[20] = test system: Mycolicibacterium smegmatis; experiment: Antibacterial activity against Mycobacterium smegmatis after 20 hrs by NCCLS-based two-fold broth dilution method; type: functional
Klebsiella pneumoniae = experiment: Antibacterial activity against Klebsiella pneumoniae after 20 hrs by NCCLS-based two-fold broth dilution method; type: functional
Bacillus subtilis [21] = experiment: Inhibition of TagO in Bacillus subtilis

CCCCc1ccc(NC(=O)C2=CCN(C)[C@@H]([C@H](O[C@@H]3O[C@H](CN)[C@@H](O)[C@H]3O)[C@H]3O[C@@H](n4ccc(=O)[nH]c4=O)[C@H](O)[C@@H]3O)C(=O)N2C)cc1
MIC [1]: 0.2 µg/mL (≈ 0.29 µM) | MIC (Staphylococcus aureus [2]): 100 µg/mL (≈ 145 µM) | MIC [3]: 1.56 µg/mL (≈ 2.27 µM) | MIC (Enterococcus faecalis [4]): 8 to 100 µg/mL (≈ 11.6 to 145 µM) | MIC (Enterococcus faecalis [5]): 8 to 100 µg/mL (≈ 11.6 to 145 µM) | MIC [6]: 0.2 to 1.56 µg/mL (≈ 0.29 to 2.27 µM) | MIC (Staphylococcus aureus [7]): 8 to 100 µg/mL (≈ 11.6 to 145 µM) | MIC [8]: 0.2 to 1.56 µg/mL (≈ 0.29 to 2.27 µM) | IC50 [9]: 581 nM | MIC (Streptococcus pneumoniae [10]): 8 to 100 µg/mL (≈ 11.6 to 145 µM) | MIC (Staphylococcus aureus [11]): 25 µg/mL (≈ 36.3 µM) | MIC (Staphylococcus aureus [12]): 8 to 100 µg/mL (≈ 11.6 to 145 µM) | MIC (Streptococcus pneumoniae [13]): 8 to 100 µg/mL (≈ 11.6 to 145 µM) | MIC (Mycolicibacterium vaccae): 50 µg/mL (≈ 72.6 µM) | MIC (Bacillus subtilis [14]): 3.13 µg/mL (≈ 4.54 µM) | MIC [15]: 0.2 to 1.56 µg/mL (≈ 0.29 to 2.27 µM) | MIC (Mycolicibacterium phlei): 12.5 µg/mL (≈ 18.1 µM) | MIC [16]: 0.0044 µg/mL (≈ 0.00639 µM) | MIC (Mycobacterium avium): 0.39 to 1.56 µg/mL (≈ 0.566 to 2.27 µM) | MIC [17]: 0.04 µg/mL (≈ 0.0581 µM) | MIC [18]: 0.2 to 1.56 µg/mL (≈ 0.29 to 2.27 µM) | MIC [19]: 0.04 µg/mL (≈ 0.0581 µM) | MIC (Escherichia coli): > 100 µg/mL | MIC [20]: 6.25 µg/mL (≈ 9.07 µM) | MIC (Klebsiella pneumoniae): 50 µg/mL (≈ 72.6 µM) | MIC (Bacillus subtilis [21]): 0.05 µg/mL (≈ 0.0726 µM)
